The values below come from patent US4041111A, “Phosphonate monoesters and method of preparation” (Purdue Research Foundation, priority 1975, dated 1977).

Series [1] has as its target T1, Type I phosphodiesterase, Bovine Intestine (Bos taurus, UniProt P15396).
T1 construct: from tissue; host or cells: bovine intestine
T1 sequence (P15396 1-874): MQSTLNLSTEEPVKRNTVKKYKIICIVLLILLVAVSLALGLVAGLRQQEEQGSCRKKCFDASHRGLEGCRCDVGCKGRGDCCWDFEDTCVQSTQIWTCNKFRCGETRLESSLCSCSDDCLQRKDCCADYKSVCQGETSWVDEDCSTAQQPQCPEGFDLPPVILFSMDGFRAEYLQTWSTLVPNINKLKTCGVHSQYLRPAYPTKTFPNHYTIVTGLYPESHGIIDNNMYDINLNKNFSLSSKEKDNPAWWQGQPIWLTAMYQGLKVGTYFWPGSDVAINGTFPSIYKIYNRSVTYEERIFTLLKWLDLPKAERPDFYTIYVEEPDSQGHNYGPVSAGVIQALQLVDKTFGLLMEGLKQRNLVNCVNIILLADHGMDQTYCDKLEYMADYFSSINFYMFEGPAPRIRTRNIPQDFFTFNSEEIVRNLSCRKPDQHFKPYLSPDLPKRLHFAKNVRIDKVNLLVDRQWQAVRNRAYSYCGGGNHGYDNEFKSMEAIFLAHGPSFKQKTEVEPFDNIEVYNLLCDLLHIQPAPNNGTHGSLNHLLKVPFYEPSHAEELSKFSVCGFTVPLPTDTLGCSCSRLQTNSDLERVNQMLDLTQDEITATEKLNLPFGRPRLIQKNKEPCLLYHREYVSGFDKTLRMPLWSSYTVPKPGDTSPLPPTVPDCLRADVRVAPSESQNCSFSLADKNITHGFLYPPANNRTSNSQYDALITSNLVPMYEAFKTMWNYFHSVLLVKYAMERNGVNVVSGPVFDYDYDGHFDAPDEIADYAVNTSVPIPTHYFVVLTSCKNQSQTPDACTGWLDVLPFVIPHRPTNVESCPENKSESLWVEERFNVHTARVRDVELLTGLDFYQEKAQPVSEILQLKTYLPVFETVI
The series is described as follows: Activity of Type I phosphodiesterase, bovine intestine (Table VII). Format: biochemical. As to conditions: 1 mM 4-nitrophenyl ester of the named compound. As to the method: (§1) Enzymic hydrolysis of 4-nitrophenyl esters is quantitated spectrophotometrically by the appearance of the 4-nitrophenolate ion at 400 nm (ε=18,320 M^-^1 cm^-1, pK 7.15) (see Kezdy, F. J. and Bender, M. L., 1962, Biochemistry, Volume 1, page 1097), either continuously above pH 7.0 or discontinuously by raising the assay mixture to pH 9 and inactivating the enzyme by the addition of two volumes of 1 M NaHCO3, 10 mM Na3 PO4, 10 mM Na2 EDTA. Standard assay conditions are 1 mM 4-nitrophenyl phenylphosphonate, 0.1 M Tris, pH 8.0, 30° C.
(§2) Table VII is a comparison of Type I and Type II Phosphodiesterase as follows:
(§3) Substrates were 1 mM solutions of the 4-nitrophenyl esters of the above

The subject of series [2] is Type I phosphodiesterase, Snake Venon. The series is described as follows: Activity of Type I phosphodiesterase, snake venom (Table VII). As to conditions: 1 mM 4-nitrophenyl ester of the named compound. The class given is biochemical. The method, then:
as §1, §2, §3

The test system of series [3] is Type II phosphodiesterase, Bovine spleen. The series is described as follows: Activity of Type II phosphodiesterase, bovine spleen (Table VII). The class given is biochemical. As to conditions: 1 mM 4-nitrophenyl ester of the named compound. The method, then:
as §1, §2, §3

In series [4] the target is T2, purified bovine intestinal phosphodiesterase (Bos taurus, UniProt P15396).
T2 sequence (P15396 1-874): T1 sequence (P15396 1-874)
The series is described as follows: Kinetic parameters of hydrolysis by purified phosphonate monoesterase/phosphodiesterase of calf intestinal mucosa (Table VI). As to conditions: 0.1 M Tris pH 8.0, 30° C., 4-nitrophenol measured continuously at 400 nm. The class given is biochemical, bovine (calf). The method, then: as §1
^a Production of 4-nitrophenol was measured continuously at 400 nm in […]

Series [5] can be described thus: Stability and water solubility of phosphonate monoesters.

For `Cc1cn([C@H]2C[C@H](O)[C@@H](COP(=O)(O)Oc3ccc([N+](=O)[O-])cc3)O2)c(=O)[nH]c1=O` [4-nitrophenyl 5'-TMP], the Activity is given as 65,700 nmoles min^-^1 mg^-^1 in series [1], 4570 nmoles min^-^1 mg^-^1 in series [2] and 6.9 nmoles min^-^1 mg^-^1 in series [3].
As to `Cc1cn([C@H]2C[C@H](OP(=O)(O)Oc3ccc([N+](=O)[O-])cc3)[C@@H](CO)O2)c(=O)[nH]c1=O` [4-nitrophenyl 3'-TMP], the Vmax in series [4] is reported as 1 μmoles min^-^1 mg^-^1. For the same compound, the figures for the Activity in series [1], in series [2] and in series [3] were 569 nmoles min^-^1 mg^-^1, 1.9 nmoles min^-^1 mg^-^1 and 168 nmoles min^-^1 mg^-^1, respectively.
Consider `O=[N+]([O-])c1ccc(OP(=O)(O)c2ccccc2)cc1` [4-nitrophenyl phenylphosphonate], for which, in series [5] (concentrations to 0.1 M, 0°-4° C.), the “stability of solutions of the ammonium salt” value is “stable in concentrations to 0.1 M for several weeks at 0°-4 °C”. Further, in series [5] (dry ammonium salt), the “stability as the dry ammonium salt” value was “stable indefinitely as the dry ammonium salt”. Also, in series [5] (in solution), the “stability in solution compared with 4-nitrophenyl phosphate” value is given as “much more stable in solution than is 4-nitrophenyl phosphate”.
